{"source": "patent US20250339396A1", "about": "(COSMAS THERAPEUTICS DEVELOPMENT INC., priority 2021, published 2025)", "key": {"Solubility of Prodrug D": {"assay": "Solubility of Prodrug D", "assay_type": "physicochemical", "excerpt": "The solubility and stability of Prodrug D as synthesized in Example 2 were studied."}, "neuropathic (SNI) rats": {"tested_on": "neuropathic (SNI) rats", "assay": "Sleep restoration in neuropathic rats, 24 h EEG/EMG recordings (REM, NREM, wakefulness, sleep fragmentation index)", "assay_type": "in vivo, rat", "settings": "for NREM 24 h, mean difference (Bonferroni's multiple comparison test) / REM 24 h, mean difference (Bonferroni's multiple comparison test) / Wake 24 h, mean difference (Bonferroni's multiple comparison test) / SFI (sleep fragmentation index), mean difference (Bonferroni's multiple comparison test): Prodrug D 150 mg/kg, neuropathic (SNI) rats; for NREM 24 h, mean difference (Bonferroni's multiple comparison test) / REM 24 h, mean difference (Bonferroni's multiple comparison test) / Wake 24 h, mean difference (Bonferroni's multiple comparison test): 24 h EEG/EMG; for SFI (sleep fragmentation index), mean difference (Bonferroni's multiple comparison test): awakenings in 24 h divided by total sleep time in hours", "protocol": "Wistar rats weighted 120 g at the beginning of the experiment were housed under standard conditions, at a constant temperature of 22° C., with food and water provided ad libitum and under a 12 h light/dark cycle (lights on at 7:00 AM; lights off at 7:00 PM). All experimental procedures and surgeries were approved by the Animal Ethics Committee of local institutional committee for animal use and care (McGill University, Canada), following the Canadian Institute of Health Research for animal care and scientific use.\nOnly animals presenting allodynia (mean 2.5 gr) 14 days after SNI surgery, were then implanted EEG/EMG electrode, for 24 hours electrical recording and non-allodynic rat were excluded.\nSham and neuropathic rats were deeply anesthetized with isoflurane (5% for induction, 2-3% for maintenance) and placed in a stereotaxic frame. For EEG monitoring, three stainless-steel epidural electrodes were positioned through 1.5 mm burr holes at-2 mm anteroposterior (AP) and −3 mm lateral (L), −4.5 mm AP and +3 mm L, −7 mm AP and […] according to bregma (Paxinos and Watson 2006). For the EMG signal, three flexible stainless-steel wires were implanted into the neck muscle. Then, wires and connectors were fixed to the skull using dental acrylic (Coltene/Whaledent Inc. USA). Rats were given 5 days to recovery (Ochoa-Sanchez, et al., 2011).\n24-h after electrode implantation surgery, rats were placed for habituation in the recording room from 12:00 PM to 9:00 PM on a daily basis. During this time, the rats were placed in the recording chambers and connected to a flexible 6-flat cable (3M Scotchflex®), in a freely moving manner. No recordings were performed, but tolerance to the cable, and sleep behavior were observed. The day 5 of habituation, recordings were performed for 24 h, starting at 6:00 PM.\nProdrug D (150 mg/kg) was dissolved in 40% PEG 400 and 60% water (about 2.5 mL average for rats by gavage) and was administered at 6 am and 6 pm.\nThe amplification of EEG/EMG signals were at the total gain of 10.000. EEG/EMG signals were digitalized by a CED 1401 interface system, processed on-line, and analyzed off-line by Spike 2 software, in parallel with analog-to-digital samplings of amplified (Grass, P55) polygraphic signals (EEG; sampling rate, 100 or 200 Hz). Consecutive 10-s epochs were subjected to a Fast Fourier Transform (FFT) and EEG power spectra density was computed in the frequency range of 0-64 Hz (Ochoa-Sanchez, R et al., 2011).\nAnalysis was made offline using the spike 2 software (Cambridge). Three classical sleep stages are identified using EEG and EMG recordings. Wakefulness was determined by a sustained activity of EMG and low amplitude and high frequency of EEG. NREM (non-rapid eyes movement) sleep was characterized by high amplitude […] (1-4 Hz) and low muscle activity. REM (rapid eyes movement) sleep was marked with muscle atonia as observed in EMG and low amplitude […] in EEG (6-11). Only period longer than 10 seconds was marked for further analysis of awake, REM and NREM sleep, in order to eliminate the transitional period such as drowsiness (Ochoa-Sanchez, R et al., 2011).\nGiven the changes induced by the neuropathy on sleep parameters, we then calculate the sleep fragmentation index (SFI). SFI was calculated as the total number of awakenings in 24 h divided by the total sleep time in hours.\nData analysis was done using GraphPad Prism statistical software version 5.04 […]. One-way ANOVA was performed for 24 h time of REM, NREM and wakefulness as well as sleep fragmentation index. Post-hoc analyses were performed using the Bonferroni t-test comparisons. All data are expressed as mean±SEM. P<0.05 was considered significant."}, "[1]": {"settings": "SNI rats, 150 mg/kg by gavage at 6 am and 6 pm"}}, "data": [{"smiles": "CC(=O)N(CCN(c1ccc(F)cc1)c1cccc(Br)c1)C(=O)OCOC(=O)CN.Cl", "note": "[Prodrug D, ((acetyl(2-((3-bromophenyl)(4-fluorophenyl)amino)ethyl)carbamoyl)oxy)methyl 2-aminoacetate hydrochloride]", "values": [{"measurement": "solubility", "setting": "Solubility of Prodrug D; aqueous with cosolvent or surfactant or cyclodextrin, in PEG400:water 40%:60% mixture", "value": "> 125", "unit": "mg/mL"}, {"measurement": "solubility", "setting": "Solubility of Prodrug D; in water", "value": "> 150", "unit": "mg/mL"}, {"measurement": "NREM 24 h, mean difference (Bonferroni's multiple comparison test)", "setting": "neuropathic (SNI) rats; Control vs SNI + Prodrug D", "value": "−236.5"}, {"measurement": "REM 24 h, mean difference (Bonferroni's multiple comparison test)", "setting": "neuropathic (SNI) rats; Control vs SNI + Prodrug D", "value": "−107"}, {"measurement": "Wake 24 h, mean difference (Bonferroni's multiple comparison test)", "setting": "neuropathic (SNI) rats; Control vs SNI + Prodrug D", "value": 343.4}, {"measurement": "SFI (sleep fragmentation index), mean difference (Bonferroni's multiple comparison test)", "setting": "neuropathic (SNI) rats; Control vs SNI + Prodrug D", "value": 0.2758}, {"measurement": "REM time, NREM time and time in wakefulness during 24 h", "setting": "neuropathic (SNI) rats; [1]", "value": "restore all the three parameters"}, {"measurement": "sleep fragmentation index (SFI)", "setting": "neuropathic (SNI) rats; [1]", "value": "reverse the fragmentation"}, {"measurement": "NREM 24 h, mean difference (Bonferroni's multiple comparison test)", "setting": "neuropathic (SNI) rats; Sham vs SNI + Prodrug D", "value": "−62.39"}, {"measurement": "REM 24 h, mean difference (Bonferroni's multiple comparison test)", "setting": "neuropathic (SNI) rats; Sham vs SNI + Prodrug D", "value": "−44.39"}, {"measurement": "Wake 24 h, mean difference (Bonferroni's multiple comparison test)", "setting": "neuropathic (SNI) rats; Sham vs SNI + Prodrug D", "value": 106.8}, {"measurement": "SFI (sleep fragmentation index), mean difference (Bonferroni's multiple comparison test)", "setting": "neuropathic (SNI) rats; Sham vs SNI + Prodrug D", "value": 0.01886}]}]}
